Source: PubChem BioAssay (NCI)
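Interpolation was linear, between the two tested concentrations surrounding the appropriate level; five concentrations were tested over 48 hours in 96-well plates. The concentration for 50% growth inhibition is given as GI50. TGI: concentration producing complete growth inhibition.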

Assays:
Assay in all cases: NCI-60 cell line screen, 48 h
SF-539 CNS = test system: SF-539 CNS
OVCAR-5 ovarian = test system: OVCAR-5 ovarian
NCI-H226 lung = test system: NCI-H226 lung
HOP-62 NSCLC = test system: HOP-62 NSCLC
786-0 renal = test system: 786-0 renal
SNB-75 CNS = test system: SNB-75 CNS
NCI/ADR-RES ovarian = test system: NCI/ADR-RES ovarian
HCT-15 colon = test system: HCT-15 colon
CCRF-CEM leukemia = test system: CCRF-CEM leukemia
MCF7 breast = test system: MCF7 breast

SMILES | GI50 (SF-539 CNS) [µM] | TGI (SF-539 CNS) [µM] | GI50 (OVCAR-5 ovarian) [µM] | TGI (OVCAR-5 ovarian) [µM] | GI50 (NCI-H226 lung) [µM] | TGI (NCI-H226 lung) [µM] | GI50 (HOP-62 NSCLC) [µM] | GI50 (786-0 renal) [µM] | TGI (786-0 renal) [µM] | GI50 (SNB-75 CNS) [µM] | TGI (SNB-75 CNS) [µM] | GI50 (NCI/ADR-RES ovarian) [µM] | TGI (NCI/ADR-RES ovarian) [µM] | GI50 (HCT-15 colon) [µM] | TGI (HCT-15 colon) [µM] | GI50 (CCRF-CEM leukemia) [µM] | TGI (CCRF-CEM leukemia) [µM] | TGI (HOP-62 NSCLC) [µM] | GI50 (MCF7 breast) [µM] | TGI (MCF7 breast) [µM]
CCc1c2c(nc3ccc(OCc4ccc(B5OC(C)(C)C(C)(C)O5)cc4)cc13)-c1cc3c(c(=O)n1C2)COC(=O)[C@]3(O)CC | < 0.0109 | 0.131 | 0.215 | > 100 | 0.0214 | 0.454 | < 0.01 | 0.02 | 0.0691 | 0.0183 | 0.296 | 0.0622 | > 100 | 0.331 | > 100 | < 0.01 | > 100 |  |  | 
Cc1ccc(Nc2nc(C)c(C(/C=C/c3ccc4c(c3)OCO4)=N/Nc3ccc([N+](=O)[O-])cc3[N+](=O)[O-])s2)c([N+](=O)[O-])c1 |  | > 100 |  | > 100 |  | 90.1 |  |  | > 100 |  | > 100 |  |  |  | > 100 |  | > 100 | > 100 |  | 
OC1c2ccccc2C2C(O)c3ccccc3C12 (stereo not drawn) |  | > 100 |  | > 100 |  |  |  |  | > 100 |  | > 100 |  |  |  | > 100 |  | > 100 | > 100 |  | 
CC1=C(C(=O)Nc2ccccc2C)C(c2ccccc2C)C(C(=O)Nc2ccccc2C)=C(C)N1 |  | > 10 |  | 66.3 |  | 46.9 |  |  | 34.5 |  | 59.2 |  |  |  | 40.3 |  |  | 62.8 |  | 
COc1cc(/C=C\c2ccc(Cl)cc2)cc(OC)c1OC |  | 0.564 |  | > 31.6 |  | 6.84 |  |  | 20.3 |  |  |  |  |  | 14.4 |  | 3.96 | > 100 |  | 
CC1CC(=O)c2c(ccc3c2C(=O)c2cccc(O)c2C3=O)C1 (stereo not drawn) |  | 29.5 |  | 36.1 |  | 34.3 |  |  | 21.2 |  | 22.9 |  |  |  | 22.9 |  | 7.97 |  |  | 
O=C(CN1C(=O)S/C(=C\C(Cl)=C\c2ccccc2)C1=O)NCCCn1ccnc1 | 2.08 | 5.27 | 2.4 | 6.47 | 2.16 | 5.19 | 3.45 | 1.98 | 3.91 | 1.22 | 12.9 | 4.13 | > 100 | 1.95 | 7 |  |  | 22.5 | 1.36 | 6.11
CCOC(=O)c1cn(CC)c2cc3c(cc2c1=O)SCS3 |  | > 100 |  | > 100 |  |  |  |  | > 100 |  | > 100 |  |  |  | > 100 |  | > 100 | > 100 |  | 
CCSC(=O)C1(C)OC2CCCCC2C1=O (stereo not drawn) |  | > 100 |  |  |  | > 100 |  |  | > 100 |  | > 100 |  |  |  | > 100 |  | > 100 | > 100 |  | 
CCOC(=O)C1Oc2ccc([N+](=O)[O-])cc2C1(C)O (stereo not drawn) |  | > 100 |  | > 100 |  | > 100 |  |  | > 100 |  | > 100 |  |  |  | > 100 |  | > 100 | > 100 |  | 
O=C1NN=CN2C(=O)CCC12 (stereo not drawn) |  | > 100 |  |  |  |  |  |  | > 100 |  | > 100 |  |  |  | > 100 |  | > 100 | > 100 |  | 
COC1C(O)C(C)OC(O[C@@H]2C[C@H]3CC[C@@H]4[C@H](CC[C@]5(C)[C@@H](C6=CC(=O)OC6)CC[C@]45O)[C@@]3(C)[C@H](O)C2)C1O (stereo partly drawn) |  | 0.0249 |  | 0.365 |  | 0.532 |  |  | > 100 |  | 1.01 |  | 0.183 |  | 0.327 |  | > 100 | 0.0362 |  | 
Cc1cc(C)nc(NS(=O)(=O)c2ccc(NC(=O)c3cccc4c(N)c5ccccc5nc34)cc2)n1 |  | > 100 |  | > 100 |  | > 100 |  |  | > 100 |  | > 100 |  |  |  | > 100 |  | > 100 | > 100 |  | 
NNC(=S)N/N=C(/C(=O)Nc1ccc([N+](=O)[O-])cc1)c1nc2ccc([N+](=O)[O-])cc2[nH]c1=O |  | > 100 |  | > 100 |  | > 100 |  |  | > 100 |  | > 100 |  |  |  | > 100 |  | > 100 |  |  | 
COC(=O)C1C(/C=C/c2ccoc2)ON2CCC[C@@H]12 (stereo partly drawn) |  | > 100 |  | > 100 |  | > 100 |  |  | > 100 |  | > 100 |  |  |  |  |  |  | > 100 |  | 
C=C1C(=O)O[C@H]2[C@H]1CC/C(CNC(=O)/C=C/c1ccc(Cl)cc1Cl)=C\CC[C@@]1(C)O[C@@H]21 | 1.53 | 3.17 | 1.85 | 4.1 | 2.33 | 5.72 | 1.74 | 1.2 | 2.56 | 1.74 | 10.3 | 2.57 | 12.8 | 1.01 | 2.33 | 0.304 | 1.19 | 4.06 |  | 
O=C1NN=C(c2ccc([N+](=O)[O-])cc2)C1n1nc(-c2ccccc2)c2ccccc2c1=O (stereo not drawn) |  | > 100 |  | > 100 |  | > 100 |  |  | > 100 |  | > 100 |  |  |  | > 68.5 |  | > 100 | > 100 |  | 
O=C(NN1C(=O)CSC12CCC(c1ccccc1)CC2)c1[nH]c2ccc(F)cc2c1-c1ccccc1 (stereo not drawn) | 20.9 | 38.3 | 18.5 | 34.7 | 19.2 | 38.6 | 18.3 | 16.4 | 33.8 | 18 | 36.3 |  |  | 16.6 | 32.7 | 19.4 | 41.1 | 34.7 | 25.3 | 71.8
COc1ccc2c(c1OC)C(=O)O[C@@H]2[C@H]1c2c(c(Br)c3c(c2OC)OCO3)CCN1C | 7.09 | > 100 | > 100 | > 100 | 44.1 | > 100 | 6.47 | 12 | > 100 | 93.3 | > 100 | 9.22 | > 100 | 4.67 | > 100 |  |  | 91.2 | 4.18 | > 100
CCOC(=O)/C=C1\Oc2ccccc2C1(C)O (stereo not drawn) |  |  |  | > 100 |  | > 100 |  |  | > 100 |  | > 100 |  |  |  | > 100 |  | > 100 | > 100 |  | 
